Reference: PubChem BioAssay (NCI)
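Values below derive from 48-hour exposures of cells grown in 96-well plates, with endpoints linearly interpolated between the two concentrations bracketing the appropriate inhibition level. TGI denotes the concentration required for complete inhibition of growth.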 Where a SMILES comes first, the peptide text is derived from it. [ ]: non-standard residue; d: D form. The star is where a group is joined. Bn2Val = CC(C)[C@@H](C(=O)*)N(Cc1ccccc1)Cc1ccccc1; NH(4-Cl-benzyl) = Clc1ccc(CN*)cc1; NMeV = CN[C@H](C(=O)O)C(C)C; dNMeA = CN[C@H](C)C(=O)O

Legend:
Assay in all cases: inhibition of tumour cell growth, NCI panel, 48 h
A549 NSCLC = tested on: A549 NSCLC
ACHN renal = tested on: ACHN renal
DU-145 prostate = tested on: DU-145 prostate
EKVX NSCLC = tested on: EKVX NSCLC
HCT-116 colon = tested on: HCT-116 colon
MCF7 breast = tested on: MCF7 breast
NCI-H522 lung = tested on: NCI-H522 lung
SF-268 CNS = tested on: SF-268 CNS
SK-MEL-2 melanoma = tested on: SK-MEL-2 melanoma
U251 CNS = tested on: U251 CNS

Structure (SMILES)	TGI (A549 NSCLC) [µM]	TGI (ACHN renal) [µM]	TGI (DU-145 prostate) [µM]	TGI (EKVX NSCLC) [µM]	TGI (HCT-116 colon) [µM]	TGI (MCF7 breast) [µM]	TGI (NCI-H522 lung) [µM]	TGI (SF-268 CNS) [µM]	TGI (SK-MEL-2 melanoma) [µM]	TGI (U251 CNS) [µM]
CC(C)=CCNc1nc(Cl)nc2nc[nH]c12	> 100	> 100	> 100	> 100	69.8	> 100	> 100	> 100		
CC(C)(C)OC(=O)NCC(CNC(=O)OC(C)(C)C)c1nc(C(N)=O)cs1	> 100	> 100		> 100	> 100	> 100			> 100	> 100
CCOC(=O)Nn1c(CC#N)nnc1Cc1ccccc1	> 100	> 100	> 100		> 100	> 100	> 100	> 100	> 100	> 100
COc1cccc(C=O)c1[O-].[O]=[U](=[O])([OH2+])[OH2+]	> 100	79.8		> 100	> 100		> 100	> 100	> 100	59.1
Cc1c(C(=O)OCc2ccccc2)[n+](=O)c2cc(Cl)c(Cl)cc2n1[O-]	28	53.7	27.6	28.6	27.2	54.4		39.8	38.6	> 100
C/C(=N\Nc1nc2ccccc2n1C)c1cc2ccccc2cn1	27.1	11.8	8.08	5	5.83		4.67	11.7		4.59
C=CCC1C(O[Si](C)(C)C(C)(C)C)C(CO[Si](C)(C)C(C)(C)C)OC1n1ccc(=O)[nH]c1=O (configuration not stated)	2.91		4.54	2.79	2.5				4.65	5.66
Cc1ccc(S(=O)(=O)Nn2c(O)c(C#N)c(-c3ccc(Cl)cc3)c(C#N)c2=O)cc1	> 100	> 100		> 100	> 100	> 100	> 100	> 100	> 100	> 100
CCOP(=O)(OCC)/C(=C/c1cccs1)CC(C)=O	> 100	> 100	> 100	> 100	> 100	> 100		> 100	> 100	> 100
CC(C)/C(Cl)=N\OC(NC(=O)P(=O)(c1ccccc1)c1ccccc1)(C(F)(F)F)C(F)(F)F	42.8	16.3	72	63.2	21.5	34		31.9		12
C#CCn1c(=O)c(C)cn(/C(=C\C(=O)OCC)C(=O)OCC)c1=O	39.2	3.22	35	30.1	10.3	11.9		35.7	32.8	15
COc1cc2cc(C(=O)N3CC(COS(C)(=O)=O)c4ccc(O)cc43)[nH]c2c(OC)c1OC (configuration not stated)		< 0.0001	0.000845	0.00645	0.138	0.0402	< 0.0001		< 0.0001	0.137
O=C(O)c1ccccc1N=Cc1ccc(N(CCCl)CCCl)cc1	> 100			> 100	> 100	> 100	> 100	> 100	> 100	> 100
O=C1CC(=O)n2cnc3cccc(c32)N1	> 100		> 100	> 100	> 100	> 100		> 100	> 100	> 100
O=C(N/N=C/C=C/c1ccccc1)c1ccccc1Nc1ccccc1C(=O)N/N=C/C=C/c1ccccc1	> 100	> 100	> 100	> 100	> 100	> 100		> 100	> 100	> 100
Cc1ccccc1-c1nc2c(C(=O)NCCN(C)C)cccc2[nH]1	> 100			> 100	> 100	> 100	> 100	> 100	> 100	> 100
Cc1cc(=O)[nH]c(NN2C(Cl)C(=O)C2c2ccc([N+](=O)[O-])cc2)n1 (configuration not stated)	> 100	33.7		78.8	22.3			41	19.6	36.7
Cn1c(-c2ccc(/C=N/NC(=S)N/N=C/c3ccc(-c4c[n+]5ccsc5n4C)cc3)cc2)c[n+]2ccsc12	> 100	> 100		> 100	> 100	> 100	> 100	> 100		> 100
c1ccc(CN2CCC(Nc3ccccc3)(c3nnnn3Cc3ccccc3)CC2)cc1	> 100	> 100	> 100	> 100	53.4	88.2		> 100		> 100
COc1cccc(N[C@@H]2c3cc4c(cc3C(c3cc(OC)c(O)c(OC)c3)[C@H]3C(=O)OCC32)OCO4)c1 (some centres not stated)	2.14			14.9	18.7	14.4	8.02	12.8	11.2	13
O=c1oc(C(C(F)(F)F)C(F)(F)F)nc2ccccc12	> 100	> 100		> 100	> 100	> 100	> 100		> 100	> 100
NCc1cccc(O)c1O	> 100	> 100		> 100	> 100		> 100	> 100	> 100	> 100
CC(C)[C@H](NC(=O)[C@H](C(C)C)N(Cc1ccccc1)Cc1ccccc1)C(=O)N(C)[C@H](C(=O)N1CCC[C@H]1C(=O)N(C)[C@H](C)C(=O)NCc1ccc(Cl)cc1)C(C)C (Bn2Val-V[NMeV]P[dNMeA]-{NH(4-Cl-benzyl)})	> 100	10.1	> 100	34	11.7		4.97	11.2	3.62	20.1
CC(C)(C)n1c(=O)[nH]c(=O)n1C(C)(C)C	> 100	> 100		> 100	> 100	> 100			> 100	> 100
C/C(=N\NC(=S)N(C)C)c1cccnn1		0.474	> 100	10.4	> 25.9	> 45	> 100		> 100	> 100
